Reference: the NIST ThermoML archive (doi:10.1016/j.tca.2012.06.011)

Assay: xn = mol fraction of the nth substance listed
Settings: 101 kPa, Liquid; for viscosity: Capillary tube (Ostwald / Ubbelohde) method; for mass density: Vibrating tube method

C1C[C@@H]2[C@H]3CC[C@H](C3)[C@@H]2C1 [exo-tetrahydrodicyclopentadiene] + CCN(CC)CC
Settings	mass density, 298.15 K [kg/m3]	mass density, 303.15 K [kg/m3]	mass density, 308.15 K [kg/m3]	mass density, 313.15 K [kg/m3]	mass density, 323.15 K [kg/m3]	viscosity, 298.15 K [mPa·s]	viscosity, 303.15 K [mPa·s]	viscosity, 308.15 K [mPa·s]	viscosity, 313.15 K [mPa·s]	viscosity, 323.15 K [mPa·s]
x2 = 0	931.29	927.38	923.46	919.54	911.7	2.8	2.549	2.332	2.124	1.811
x2 = 0.1347	906.47	902.17	898.15	894.12	885.86	2.034	1.871	1.714	1.57	1.36
x2 = 0.2521	883.66	879.54	875.44	871.32	863.09	1.535	1.421	1.324	1.217	1.063
x2 = 0.365	861.16	856.98	852.8	848.59	840.22	1.188	1.109	1.035	0.955	0.842
x2 = 0.4709	839.56	835.31	831.04	826.75	818.22	0.961	0.893	0.829	0.77	0.69
x2 = 0.5711	818.66	814.33	809.98	805.62	796.93	0.779	0.738	0.691	0.649	0.578
x2 = 0.6683	798.2	793.7	789.27	784.85	775.97	0.653	0.618	0.583	0.547	0.492
x2 = 0.7585	778.5	773.97	769.46	764.95	755.83	0.55	0.524	0.503	0.463	0.431
x2 = 0.8414	759.95	755.41	750.85	746.25	737.14	0.476	0.455	0.433	0.406	0.373
x2 = 0.9136	743.67	739.07	734.45	729.79	720.56	0.419	0.399	0.38	0.368	0.327
